Test results: paper PMC8151276, “An Integrated Approach toward NanoBRET Tracers for Analysis of GPCR Ligand Engagement” (Molecules, 2021)

How the values were obtained:
Type in all cases: binding
CCKBR = target: T1, CCKBR (Homo sapiens, UniProt P32239); assay: NanoBRET screen HiBiT-CCKBR in HEK293
T1 construct: purchased Promega (in-house HiBiT-GPCR construct library, NanoBRET)
T1 sequence (P32239 1-447): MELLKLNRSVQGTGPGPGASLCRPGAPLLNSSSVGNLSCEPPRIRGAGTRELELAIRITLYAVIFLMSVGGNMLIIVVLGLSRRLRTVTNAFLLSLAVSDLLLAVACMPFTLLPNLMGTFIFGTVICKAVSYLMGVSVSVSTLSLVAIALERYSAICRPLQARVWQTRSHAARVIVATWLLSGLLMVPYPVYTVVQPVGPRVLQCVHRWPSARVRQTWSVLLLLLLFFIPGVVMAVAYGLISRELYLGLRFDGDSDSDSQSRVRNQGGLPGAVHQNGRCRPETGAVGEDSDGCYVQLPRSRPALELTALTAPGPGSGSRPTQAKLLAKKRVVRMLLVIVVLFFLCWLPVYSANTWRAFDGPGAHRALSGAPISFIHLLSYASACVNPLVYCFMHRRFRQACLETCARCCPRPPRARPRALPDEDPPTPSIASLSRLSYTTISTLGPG
Experimental: (§1) Each tracer candidate was screened across the entire library of HiBiT-GPCR constructs using NanoBRET as the detection modality. As depicted in Figure 4A, the specificity of interactions was evaluated through decrease in BRET due to competitive displacement of a bound tracer by excess parental compound. Each tracer was analyzed for binding to each HiBiT-GPCR fusion in the absence and in the presence of competing parental compound. Briefly, HEK293 cells were transfected with HiBiT-GPCR constructs diluted into promoterless DNA to reduce expression and maximize translocation to the cell surface. Each tracer candidate was then screened at concentrations of 1 μM and 0.1 μM across cells expressing these fusions. Cells were treated for 1.5 h with tracer either alone or in the presence of 20 μM competing parental compound (i.e., control). BRET was measured upon addition of purified LgBiT and subsequent complementation with HiBiT genetically fused to a GPCR. The specificity of interactions was assessed through a decrease in BRET signal due to competitive displacement of the bound tracer. To further gauge the robustness of these interactions, the fold response over the control (i.e., BRETtracer/BRETcontrol) was calculated. We chose a 1.5-fold response, which translates to ≥7-fold signal over noise as the minimal threshold required to score an interaction as positive. […]. Below we highlight the screening results obtained for our exemplary fluorescent tracers based on Clozapine, Amitriptyline and AZD1283.
(§2) HiBiT-GPCR DNA constructs were diluted in 10 mM Tris pH 8 to a final concentration of 0.01 μg/μL, arrayed in 96-well plates and stored at −20 °C. For transfection, HEK293 cells were suspended in Opti-MEM (without phenol red) supplemented with 2% fetal bovine serum (Seradigm) and 100 units/mL penicillin–streptomycin (Gibco) at a final concentration of 220,000 cells/mL and dispensed into white 96-well plates at 90 μL/well. Subsequent transfections and screens were carried using an Agilent Bravo Automated Liquid Handling Platform. First, the 96-well HiBiT DNA arrays were diluted 25-fold in Opti-MEM (without serum or phenol red) to a final concentration of 0.0004 μg/μL and 20 μL of the diluted DNAs were transferred into new 96-well plates. Next, promoterless carrier DNA (1 μg/μL) was diluted 25-fold (0.04 μg/μL) and then dispensed into the diluted arrays at 20 μL/well. Following brief mixing, Viafect transfection reagent (Promega) diluted 16-fold into Opti-MEM was dispensed into the plates at 40 μL/well. After mixing by pipetting, plates were incubated for 10 min on the pipetting station deck. The DNA-transfection reagent complexes were then added to plates containing cells. To facilitate the screen, 10 μL of DNA-transfection reagent complexes were added in duplicates to the top 4 and bottom 4 rows, resulting in two identical 48-well arrays per plate. Plates with transfected cells were incubated for 18–20 h at 37 °C/5% CO2. A screen of each tracer across the entire library using two different concentrations requires duplicate plates of transfected cells. Depending on the number of tracers being screened, transfections can be scaled up using the same ratios. The next day, for each tracer, four 20× screening solutions in tracer dilution buffer (Promega) were prepared: two duplicates at final concentration of 20 μM and two duplicates at a final concentration of 2 μM. A competing unmodified compound was added to one of each duplicate at a final concentration of 400 μM. The four resulting solutions were diluted 4-fold in Opti-MEM without serum or phenol red to generate 5× solutions (5 µM and 0.5 µM tracer +/− 100 μM competing compound). To screen the library, a BioTek MultiFlo FX liquid dispenser was used to dispense 22.5 µL of tracer solution to the top 4 rows and 22.5 µL tracer + competing compound solution to the 4 bottom rows. Plates were briefly mixed on an orbital shaker and incubated for 1.5 h at room temperature. […]

CCR2 = target: T2, CCR2 (Homo sapiens, UniProt P41597); assay: NanoBRET screen HiBiT-CCR2 in HEK293
T2 construct: purchased Promega (in-house HiBiT-GPCR construct library, NanoBRET)
Experimental: as §1, §2

P2RY1 = target: T3, P2RY1 (Homo sapiens, UniProt P47900); assay: NanoBRET screen HiBiT-P2RY1 in HEK293
T3 construct: purchased Promega (in-house HiBiT-GPCR construct library, NanoBRET)
Experimental: as §1, §2

CYSLTR2 = target: T4, CYSLTR2 (Homo sapiens, UniProt Q9NS75); assay: NanoBRET screen HiBiT-CYSLTR2 in HEK293; conditions: CYSLTR2
T4 construct: purchased Promega (in-house HiBiT-GPCR construct library, NanoBRET)
T4 sequence (Q9NS75 1-346): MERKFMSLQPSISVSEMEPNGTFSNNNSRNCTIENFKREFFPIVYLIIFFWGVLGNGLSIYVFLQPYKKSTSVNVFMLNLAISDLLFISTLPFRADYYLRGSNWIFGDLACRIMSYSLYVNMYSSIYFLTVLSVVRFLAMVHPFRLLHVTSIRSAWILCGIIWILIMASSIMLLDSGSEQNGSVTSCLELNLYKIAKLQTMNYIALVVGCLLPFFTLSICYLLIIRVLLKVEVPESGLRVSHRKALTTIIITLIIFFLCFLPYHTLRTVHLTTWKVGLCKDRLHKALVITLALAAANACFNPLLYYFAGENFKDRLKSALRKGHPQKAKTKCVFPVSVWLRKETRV
Experimental: as §1, §2

PTGDR2 = target: T5, PTGDR2 (Homo sapiens, UniProt Q9Y5Y4); assay: NanoBRET screen HiBiT-PTGDR2 in HEK293
T5 construct: purchased Promega (in-house HiBiT-GPCR construct library, NanoBRET)
T5 sequence (Q9Y5Y4 1-395): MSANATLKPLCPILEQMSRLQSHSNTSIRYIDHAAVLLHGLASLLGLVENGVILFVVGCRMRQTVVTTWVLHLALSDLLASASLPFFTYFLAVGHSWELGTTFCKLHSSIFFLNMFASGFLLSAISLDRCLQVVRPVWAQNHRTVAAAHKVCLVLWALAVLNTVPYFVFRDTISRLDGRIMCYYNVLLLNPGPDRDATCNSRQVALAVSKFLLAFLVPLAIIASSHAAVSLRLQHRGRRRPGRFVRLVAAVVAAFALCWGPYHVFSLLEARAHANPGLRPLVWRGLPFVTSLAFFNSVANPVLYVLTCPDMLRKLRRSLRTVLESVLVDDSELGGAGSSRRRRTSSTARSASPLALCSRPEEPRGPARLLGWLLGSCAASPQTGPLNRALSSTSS
Experimental: as §1, §2

[1] = tracer at 0.1μM, listed as amitriptyline-b-2-NB590

T2 sequence (P41597 whole entry): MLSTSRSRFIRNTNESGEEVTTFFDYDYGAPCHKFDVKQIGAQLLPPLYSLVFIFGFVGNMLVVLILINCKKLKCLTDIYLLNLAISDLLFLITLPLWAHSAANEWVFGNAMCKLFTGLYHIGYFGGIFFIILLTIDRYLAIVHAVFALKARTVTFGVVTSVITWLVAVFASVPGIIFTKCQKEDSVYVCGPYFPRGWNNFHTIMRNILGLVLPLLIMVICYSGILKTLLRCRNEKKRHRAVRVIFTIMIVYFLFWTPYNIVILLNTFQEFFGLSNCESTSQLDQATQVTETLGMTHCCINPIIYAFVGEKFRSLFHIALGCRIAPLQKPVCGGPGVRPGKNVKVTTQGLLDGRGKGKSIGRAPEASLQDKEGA
T3 sequence (P47900 whole entry): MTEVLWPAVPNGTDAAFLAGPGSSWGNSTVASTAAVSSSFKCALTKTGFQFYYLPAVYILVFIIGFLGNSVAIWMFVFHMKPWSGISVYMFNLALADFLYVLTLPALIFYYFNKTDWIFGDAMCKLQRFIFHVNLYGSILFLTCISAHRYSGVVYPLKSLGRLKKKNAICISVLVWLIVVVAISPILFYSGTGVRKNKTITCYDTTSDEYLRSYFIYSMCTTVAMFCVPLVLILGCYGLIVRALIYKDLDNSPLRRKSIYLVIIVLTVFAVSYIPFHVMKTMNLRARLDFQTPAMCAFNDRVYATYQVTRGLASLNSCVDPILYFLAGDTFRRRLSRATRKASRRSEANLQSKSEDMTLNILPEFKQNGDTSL

SMILES	NanoBRET Fold Response (CCKBR; CCKBR, tracer 0.1μM)	NanoBRET Fold Response (CCKBR; CCKBR, tracer 1μM)	NanoBRET Fold Response (CCR2; CCR2, tracer 0.1μM)	NanoBRET Fold Response (CCR2; CCR2, tracer 1μM)	NanoBRET Fold Response (P2RY1; P2RY1, tracer 0.1μM)	NanoBRET Fold Response (P2RY1; P2RY1, tracer 1μM)	NanoBRET Fold Response (CYSLTR2; tracer 0.1μM)	NanoBRET Fold Response (CYSLTR2; tracer 1μM)	NanoBRET Fold Response (PTGDR2; PTGDR2, tracer 0.1μM)	NanoBRET Fold Response (PTGDR2; PTGDR2, tracer 1μM)	further results
O=C(CCOCCOCCOCCOCCNC(=O)CCc1ccc2n1[B-](F)(F)[N+]1=C(c3ccc[nH]3)C=CC1=C2)NCCCN1CCN(C2=Nc3ccccc3Oc3ccc(Cl)cc32)CC1 [Loxapine-a-2-NB590]	1.05	0.98	0.97	0.81	1.01	0.97	0.91	1.02	1.06	1.04	
CC(C)N(CC[C@H](c1ccccc1)c1cc(CCNC(=O)CCOCCOCCOCCOCCNC(=O)CCc2ccc3n2[B-](F)(F)[N+]2=C(c4ccc[nH]4)C=CC2=C3)ccc1O)C(C)C [Tolterodine-2-NB590]	0.97	1.07	1.20	0.98	0.97	1.00	0.93	1.00	0.95	0.99	
N#CN=C(NCCCOc1cccc(CN2CCCCC2)c1)NCCNC(=O)CCOCCOCCOCCOCCNC(=O)CCc1ccc2n1[B-](F)(F)[N+]1=C(c3ccc[nH]3)C=CC1=C2 [Aminopotentidine-2-NB590]	1.17	1.04	0.93	0.98	1.02	1.02	1.05	0.98	0.98	0.48	
CCOC(=O)c1cc(C#N)c(N2CCC(C(=O)NS(=O)(=O)Cc3ccccc3/C=C/C(=O)NCCNC(=O)CCc3ccc4n3[B-](F)(F)[N+]3=C(c5ccc[nH]5)C=CC3=C4)CC2)nc1C [AZD1283-1-NB590]											NanoBRET Fold Response (CCKBR; CCKBR, 0.1μM): 1.18; NanoBRET Fold Response (CCKBR; CCKBR, 1μM): 1.10; NanoBRET Fold Response (CCR2; CCR2, 0.1μM): 0.93; NanoBRET Fold Response (CCR2; CCR2, 1μM): 1.04; NanoBRET Fold Response (P2RY1; P2RY1, 0.1μM): 1.06; NanoBRET Fold Response (P2RY1; P2RY1, 1μM): 1.05; NanoBRET Fold Response (CYSLTR2; 0.1μM): 1.07; NanoBRET Fold Response (CYSLTR2; 1μM): 0.97; NanoBRET Fold Response (PTGDR2; PTGDR2, 0.1μM): 1.07; NanoBRET Fold Response (PTGDR2; PTGDR2, 1μM): 1.03
CN(C)CCC=C1c2ccccc2CCc2ccc(C(=O)NCCNC(=O)CCOCCOCCOCCOCCNC(=O)CCc3ccc4n3[B-](F)(F)[N+]3=C(c5ccc[nH]5)C=CC3=C4)cc21 [Amitriptyline-b-2-NB590]							0.95	1.04			NanoBRET Fold Response (CCKBR; [1]): 1.10; NanoBRET Fold Response (CCKBR; tracer at 1μM, listed as amitriptyline-b-2-NB590): 1.09; NanoBRET Fold Response (CCR2; tracer at 0.1μM): 0.99; NanoBRET Fold Response (CCR2; tracer at 1μM): 0.89; NanoBRET Fold Response (P2RY1; [1]): 1.13; NanoBRET Fold Response (PTGDR2; tracer at 0.1μM): 1.00; NanoBRET Fold Response (PTGDR2; tracer at 1μM): 1.00
O=C(CCc1ccc2n1[B-](F)(F)[N+]1=C(c3ccc[nH]3)C=CC1=C2)NCCOCCOCCNC(=O)OCCOCCN1CCN(C2=Nc3ccccc3Sc3ccccc32)CC1 [Quetiapine-a-2-NB590]	1.05	0.93	1.00	0.88	1.00	1.01	0.88	0.85	0.96	1.05	
Cc1cc2c(s1)Nc1ccccc1N=C2N1CCN(CCCNC(=O)CCOCCOCCOCCOCCNC(=O)CCc2ccc3n2[B-](F)(F)[N+]2=C(c4ccc[nH]4)C=CC2=C3)CC1 [Olanzapine-a-2-NB590]	1.07	0.89	1.00	0.59	0.97	0.95	0.95	0.99	0.97	0.96	
CN1CCN(C2=Nc3cc(Cl)ccc3Nc3ccc(CNC(=O)CCOCCOCCOCCOCCNC(=O)CCc4ccc5n4[B-](F)(F)[N+]4=C(c6ccc[nH]6)C=CC4=C5)cc32)CC1 [Clozapine-b-2-NB590]											NanoBRET Fold Response (CCKBR; CCKBR, 0.1μM tracer): 0.99; NanoBRET Fold Response (CCKBR; CCKBR, 1μM tracer): 1.07; NanoBRET Fold Response (CCR2; CCR2, 0.1μM tracer): 1.01; NanoBRET Fold Response (CCR2; CCR2, 1μM tracer): 0.93; NanoBRET Fold Response (P2RY1; P2RY1, 0.1μM tracer): 1.03; NanoBRET Fold Response (P2RY1; P2RY1, 1μM tracer): 1.01; NanoBRET Fold Response (CYSLTR2; 0.1μM tracer): 1.01; NanoBRET Fold Response (CYSLTR2; 1μM tracer): 1.03; NanoBRET Fold Response (PTGDR2; PTGDR2, 0.1μM tracer): 1.01; NanoBRET Fold Response (PTGDR2; PTGDR2, 1μM tracer): 1.02
